Measured values as given in article doi:10.1101/2021.04.08.439011v1 (biorxiv, 2021).

Tests used:
Test in all cases: biochemical
Conditions in all cases: read-out: Residual activity
TTBK1 = TTBK1 (Homo sapiens, UniProt Q5TCY1)
LTK = LTK (Homo sapiens, UniProt P29376)
DYRK1B = DYRK1B (Homo sapiens, UniProt Q9Y463)
STK33 = STK33 (Homo sapiens, UniProt Q9BYT3)
Sequence of STK33 (Q9BYT3 whole entry): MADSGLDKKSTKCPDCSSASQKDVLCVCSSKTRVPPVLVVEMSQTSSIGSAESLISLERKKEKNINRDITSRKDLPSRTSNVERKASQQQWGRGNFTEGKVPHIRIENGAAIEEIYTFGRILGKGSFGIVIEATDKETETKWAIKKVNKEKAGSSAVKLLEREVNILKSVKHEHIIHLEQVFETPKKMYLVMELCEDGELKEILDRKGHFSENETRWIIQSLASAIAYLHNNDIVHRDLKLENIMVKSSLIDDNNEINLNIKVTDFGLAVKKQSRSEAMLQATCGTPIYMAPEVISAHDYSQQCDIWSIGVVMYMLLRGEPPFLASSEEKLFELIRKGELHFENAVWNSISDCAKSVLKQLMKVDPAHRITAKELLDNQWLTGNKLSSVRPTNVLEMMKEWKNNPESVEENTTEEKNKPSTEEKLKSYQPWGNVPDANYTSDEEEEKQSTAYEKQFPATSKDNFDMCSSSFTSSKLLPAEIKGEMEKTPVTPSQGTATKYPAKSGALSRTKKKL

Sequence of TTBK1 (Q5TCY1 whole entry): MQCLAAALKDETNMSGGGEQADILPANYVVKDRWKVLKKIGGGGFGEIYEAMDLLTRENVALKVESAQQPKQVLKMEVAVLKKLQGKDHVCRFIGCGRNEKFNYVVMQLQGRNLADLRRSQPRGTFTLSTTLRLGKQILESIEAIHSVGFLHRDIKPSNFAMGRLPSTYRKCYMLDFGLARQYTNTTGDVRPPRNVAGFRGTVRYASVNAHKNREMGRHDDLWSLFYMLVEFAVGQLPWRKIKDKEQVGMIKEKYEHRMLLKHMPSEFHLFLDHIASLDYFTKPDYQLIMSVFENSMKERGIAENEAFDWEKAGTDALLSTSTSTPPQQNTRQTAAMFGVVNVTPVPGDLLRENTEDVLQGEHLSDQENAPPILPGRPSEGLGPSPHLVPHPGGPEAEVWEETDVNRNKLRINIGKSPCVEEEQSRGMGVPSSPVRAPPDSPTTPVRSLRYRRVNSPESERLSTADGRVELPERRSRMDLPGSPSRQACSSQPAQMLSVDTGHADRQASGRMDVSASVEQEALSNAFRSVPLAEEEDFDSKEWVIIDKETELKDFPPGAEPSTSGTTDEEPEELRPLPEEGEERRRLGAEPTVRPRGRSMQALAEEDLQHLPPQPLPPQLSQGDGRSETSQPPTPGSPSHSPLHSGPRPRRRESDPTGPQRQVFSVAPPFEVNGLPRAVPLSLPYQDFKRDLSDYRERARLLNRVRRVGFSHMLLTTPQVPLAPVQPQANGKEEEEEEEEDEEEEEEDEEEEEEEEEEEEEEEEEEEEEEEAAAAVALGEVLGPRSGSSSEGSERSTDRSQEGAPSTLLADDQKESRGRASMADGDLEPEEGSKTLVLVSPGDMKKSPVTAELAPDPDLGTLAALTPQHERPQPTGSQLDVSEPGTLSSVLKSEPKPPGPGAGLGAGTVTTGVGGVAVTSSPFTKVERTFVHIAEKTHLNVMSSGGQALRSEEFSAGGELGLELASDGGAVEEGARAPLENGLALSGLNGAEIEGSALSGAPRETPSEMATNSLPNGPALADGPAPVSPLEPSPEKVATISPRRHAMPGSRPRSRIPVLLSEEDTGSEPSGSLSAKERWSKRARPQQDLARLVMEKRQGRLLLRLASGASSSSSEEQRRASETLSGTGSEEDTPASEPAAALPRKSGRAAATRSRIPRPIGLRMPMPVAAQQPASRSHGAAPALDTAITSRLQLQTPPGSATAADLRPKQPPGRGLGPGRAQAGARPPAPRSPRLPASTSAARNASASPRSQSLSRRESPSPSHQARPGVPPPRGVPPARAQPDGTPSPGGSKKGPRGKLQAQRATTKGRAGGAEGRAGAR
Sequence of DYRK1B (Q9Y463 whole entry): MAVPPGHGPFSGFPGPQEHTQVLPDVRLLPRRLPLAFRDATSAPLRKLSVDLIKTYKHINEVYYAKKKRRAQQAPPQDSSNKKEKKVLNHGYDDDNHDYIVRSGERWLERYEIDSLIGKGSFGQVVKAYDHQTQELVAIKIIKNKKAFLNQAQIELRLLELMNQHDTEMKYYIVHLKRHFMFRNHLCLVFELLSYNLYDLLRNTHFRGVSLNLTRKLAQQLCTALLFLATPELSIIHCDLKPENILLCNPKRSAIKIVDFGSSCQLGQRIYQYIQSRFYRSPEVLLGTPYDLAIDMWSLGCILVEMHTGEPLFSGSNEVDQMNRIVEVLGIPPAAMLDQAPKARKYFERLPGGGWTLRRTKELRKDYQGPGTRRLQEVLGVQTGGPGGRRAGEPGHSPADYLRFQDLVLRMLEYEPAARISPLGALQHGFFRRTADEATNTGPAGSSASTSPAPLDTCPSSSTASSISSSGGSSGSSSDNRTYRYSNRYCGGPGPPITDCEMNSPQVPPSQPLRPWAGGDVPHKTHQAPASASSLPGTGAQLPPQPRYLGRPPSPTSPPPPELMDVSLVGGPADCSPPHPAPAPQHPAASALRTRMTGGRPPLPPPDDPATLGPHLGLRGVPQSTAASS
Sequence of LTK (P29376 whole entry): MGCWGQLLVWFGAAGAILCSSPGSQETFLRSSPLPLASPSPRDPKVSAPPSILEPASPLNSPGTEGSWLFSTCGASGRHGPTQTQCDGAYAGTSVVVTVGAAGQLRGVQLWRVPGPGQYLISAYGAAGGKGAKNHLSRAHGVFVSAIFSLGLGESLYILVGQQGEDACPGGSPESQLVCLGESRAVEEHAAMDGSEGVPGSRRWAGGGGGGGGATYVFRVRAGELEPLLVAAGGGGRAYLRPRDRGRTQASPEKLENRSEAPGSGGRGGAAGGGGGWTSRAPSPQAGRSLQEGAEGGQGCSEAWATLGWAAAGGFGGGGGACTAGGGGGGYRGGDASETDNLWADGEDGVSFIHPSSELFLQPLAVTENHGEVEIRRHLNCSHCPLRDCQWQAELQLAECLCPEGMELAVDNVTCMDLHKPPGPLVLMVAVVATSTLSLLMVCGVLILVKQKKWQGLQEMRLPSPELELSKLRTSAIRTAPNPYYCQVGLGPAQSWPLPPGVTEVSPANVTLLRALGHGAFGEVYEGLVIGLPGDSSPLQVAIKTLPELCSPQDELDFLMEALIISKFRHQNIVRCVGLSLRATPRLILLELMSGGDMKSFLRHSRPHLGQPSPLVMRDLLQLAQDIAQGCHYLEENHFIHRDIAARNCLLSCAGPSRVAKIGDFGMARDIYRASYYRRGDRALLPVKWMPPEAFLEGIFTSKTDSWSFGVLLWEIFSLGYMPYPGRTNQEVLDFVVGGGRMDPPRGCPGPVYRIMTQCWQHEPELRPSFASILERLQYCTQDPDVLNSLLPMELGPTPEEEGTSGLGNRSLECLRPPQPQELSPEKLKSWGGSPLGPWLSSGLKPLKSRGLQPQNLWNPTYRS

remaining activity at 1 µM (TTBK1): 131%
remaining activity at 1 µM (LTK): 105%
remaining activity at 1 µM (DYRK1B): 98%
remaining activity at 1 µM (STK33): 89%
SMILES: CNc1ncc2cc(-c3ccc(-c4ncccc4F)cc3Cl)c(=O)n(CC3OCC(N)CO3)c2n1 (stereo not shown) [compound 10, 8-(((2r,5r)-5-Amino-1,3-dioxan-2-yl)methyl)-6-(2-chloro-4-(3-fluoropyridin-2-yl)phenyl)-2-(methylamino)pyrido[2,3-d]pyrimidin-7(8H)-one]
